Legend:
[1] = test system: isolated ventricular muscle tissue; test: Formation of electrical conduction block by PDT in isolated cardiac muscle tissue; set-up: species or system Wister rat; conditions: 4.3 μg/ml
Method: An electrical conduction block was formed by performing PDT using a cardiac muscle tissue.
A cardiac muscle tissue was isolated from a Wister rat, immersed in a perfusion fluid (Tyrode's solution [aerated with 95% O2 and 5% CO2 gases and stored at 37° C. in a constant-temperature apparatus]), spread, fixed on the floor (made of silicon) of a tissue bath with a tungsten wire to prepare a spread sample (maximum 1.5 cm long, 1.0 cm width, 0.18 cm thickness) of an isolated ventricular muscle. A perfusion fluid was passed through the spread sample and stabilized by allowing to stand for approx. 3 h. At this time, the perfusion fluid was not reused.
As a photosensitizer, talaporfin sodium was dissolved in a perfusion fluid at 4.3 μg/ml, and 300 cc was circulated and perfused. It is assumed that, when a photosensitizer is intravenously injected to a 300-g rat at approx. 2 mg/kg, the photosensitizer is dissolved at about this concentration in the fluid throughout the body. After loading for 2 h, a liquid level of the perfusion fluid was lowered to the tissue surface or lower, and the spread tissue was irradiated with a laser beam.
The irradiation laser beam was a continuous semiconductor laser beam (peak wavelength, 670.8 nm) and was delivered to the tissue from an irradiation port of 0.0078 cm^2 at the fiber end with an intensity of 150 mW/cm^2 in a contact state. While moving the fiber, a 0.1-cm^2 (0.1 cm length×1 cm width) region of the tissue surface was irradiated with a laser beam for 5 min. Irradiation was performed at 3.5 J/cm^2 in terms of total energy density.
The tissue action potential was measured as follows. An electrical stimulus of 2 Hz and 50 mA was applied from a bipolar electrode (0.2φ silver wire) using a stimulator, and a potential of the tissue surface was led with a bipolar measuring electrode (0.25φ stainless wire).
FIGS. 8A to 8F show changes in the potential of the spread tissue. In FIGS. 8A to 8F, the upper line represents potential changes at site 1 in FIG. 7. The lower line represents potential changes at site 2 in FIG. 7. The unit of the vertical axis is mV.

[2] = test system: cultured cardiac muscle cells derived from an SD rat; test: PDT cell lethality vs photosensitizer concentration, loading time and total dose (CCK-8); type: cell-based; conditions: for cell lethality at 2 h after irradiation: loading 0 to 120 min, 5, 10, 15 J/cm^2
Method: Using cultured cardiac muscle cells derived from an SD rat, the relationship of the photosensitizer concentration, the photosensitizer loading time, and the cell lethality and the laser output required to induce cell death were examined
Cultured cardiac muscle cells derived from an SD rat were purchased from Cell Garage Co., Ltd. D-MEM/F12+10% FBS was used as a medium.
2.2 to 2.3×10^5 cells/ml of cardiac muscle cells in suspension were seeded on a collagen-coated 96-well plate at 0.1 ml/well (2.2 to 2.3×10^4 cells/well) and cultured in an incubator (37° C., CO2 concentration 5%) for six to seven days.
At this time, talaporfin sodium as a photosensitizer was dissolved in a medium at 5, 15, or 30 μg/ml. Cardiac muscle cells were loaded with talaporfin sodium for 0, 30, 60, or 120 min and irradiated with a laser beam. Laser irradiation was performed using a continuous semiconductor laser beam (peak wavelength, 670.8 nm; power density, 150 mW/cm^2) on a 0.5-cm^2 irradiation field (=area of a well) at 5, 10, and 15 J/cm^2.
After laser irradiation, 0.01 ml of Cell Counting Kit-8 (Dojindo Laboratories, hereinafter referred to as CCK-8) was added to the medium in each well, the plate was incubated for 2 h, and the absorbance at 450 nm was measured to calculate the cell lethality. The cell lethality was calculated based on the absorbance without performing laser irradiation as 100%.

[3] = Fluorescence observation of photosensitizer distribution in rat cardiac muscle tissue over time; type: in vivo, Wistar rat; conditions: 2 mg/kg i.v.
Method: As a tissue, the right ventricular free wall isolated from a Wistar rat (male, 8 to 10 weeks old) was used. Immediately after animals were allowed to inhale vaporized diethyl ether, heparin and Nembutal (0.2 and 0.5 ml, respectively) were administered intraperitoneally at a dose of 2 mg/kg, and a solution of Laserphyrin (Meiji Seika Kaisha, Ltd.) dissolved in physiological saline at a dose of 0.5 ml were intravenously injected from the lower extremity vena cava. The heart was isolated at 5 min (Experiment 1), 30 min (Experiment 2), and 60 min (Experiment 3) after injection, and the target tissue was ablated. […] As a sample for fluorescence observation, a cross-section of the above-mentioned tissue was excised in a thickness of 10 μm using a freezing microtome in the direction in which the base and the apex of the heart are aligned, placed on a slide glass, and dried for one or two days.
A light of a mercury lamp (Olympus Corporation) was attenuated with an ND filter (Olympus Corporation, 12%), and only a light in the 400-nm band was extracted with a band path filter (Olympus Corporation) and delivered to the sample as an excitation light. Fluorescence of the photosensitizer was selectively extracted with a dichroic mirror (OMEGA, 636 nm-) and a band path filter (OMEGA, 695 nm; half bandwidth, 27.5 nm) and photographed with a CCD camera. […]

[4] = Pharmacokinetics of talaporfin sodium, rat plasma; type: in vivo; conditions: intravenous
Method: FIG. 45 is a graph showing changes in plasma concentrations after intravenous injection to rats at various doses (10, 5, 2, 1 mg/kg) and to humans at 1 mg/kg over time, using data in pharmacology studies and clinical studies with talaporfin sodium. In rats, the average of the mean plasma concentrations measured at 47 min, which was the average of the half-lives from 2 to 60 min after intravenous injection at a dose of 10 mg/kg, and at 5 min was used as true values, and concentration changes were calculated until 60 min. Furthermore, a straight line was drawn between the value at 60 min and the value at 120 min calculated using the average of the plasma concentrations measured at 9.6 h, which was the average of the half-lives from 2 to 24 h after intravenous injection, and at 24 h as a true value. Changes at each dose were calculated assuming that the plasma concentration changed in proportion to the dose.

C=Cc1c(C)c2cc3nc(c(CC(=O)N[C@@H](CC(=O)O)C(=O)O)c4[nH]c(cc5nc(cc1[nH]2)C(C)=C5CC)c(C)c4C(=O)O)[C@@H](CCC(=O)O)[C@@H]3C [talaporfin sodium, mono-L-aspartyl chlorine 6]
time without electrical conduction after block ([1]; loading 2 h, 3.5 J/cm^2): ≥ 1 h | electrical conduction (potential at site 2) ([1]; loading 2 h, 3.5 J/cm^2, 5 min after the completion of laser irradiation): the electrical conduction route was completely blocked | electrical conduction (potential at site 2) ([1]; loading 2 h, 150 mW/cm^2, 5 min after the start of laser irradiation): a portion of the stimulus conduction route is blocked | cell conditions in tissue sample at PDT site ([1]; 3.5 J/cm^2, FIG. 9): no major abnormality was observed in the cell conditions | cell lethality at 2 h after irradiation ([2]; 15 μg/ml or lower): no marked effect was observed | cell morphology immediately after laser beam irradiation ([2]; 30 μg/ml, 15 J/cm^2, loading 30 min): marked changes in cell morphology, such as exfoliation and shrinkage of cells, were observed | cell lethality at 2 h after irradiation ([2]; 30 μg/ml): the cell lethality markedly increased after laser beam irradiation | cell lethality vs loading time ([2]; loading 0, 30, 60, 120 min, FIG. 19): loading for 30 min was most effective | photosensitizer distribution in cardiac muscle tissue ([3]; 30 and 60 min after injection): white streaks were observed all over the images at 30 and 60 min, showing the existence of the photosensitizer in the surroundings | photosensitizer distribution in cardiac muscle tissue ([3]; approx. 5 min after injection): almost no photosensitizer was present immediately after the intravenous injection | concentration at 30 min ([4]; conditions of Experiment 3 (2 mg/kg, interval 30 min)): 24000 ng/mL | concentration at 60 min ([4]; conditions of Experiment 4 (2 mg/kg, interval 60 min)): 16000 ng/mL
